Measured values: patent US20050208678A1, “Anti-fusion assay” (priority 2001, published 2005)
Where no end group is shown, it is not given here.

What was measured:
IQN17 = assay: Binding of Alexa-C28 to IQN17, titration measured by capillary zone electrophoresis; parameters: species or system HIV-1; settings: 5 μM Alexa-C28, increasing concentration of IQN17, FIG. 3
Experimental: Eckert et al., Cell 99, 103-115 (1999). C28 was labeled with the fluorescent molecule, Alexa-430 (Molecular Probes) at its carboxyl terminal (Alexa-C28). The binding was measured by titration of labeled C28 with IQN17. The concentration of bound and unbound C28 was measured by capillary zone electrophoresis.
Capillary Electrophoresis Separations. Capillary electrophoresis experiments were conducted on a Beckman Coulter P/ACE System MDQ and a Spectrumedix 9610HTS. […] Separations were conducted with an applied voltage of 30 kV. The capillaries used in the Spectrumedix 9610HTS has an inner diameter of 50 μm, effective length of 50 cm, and an inner surface of fused silica. Separations were conducted with an applied voltage of 13 kV. Separation buffer was 20 mM Sodium Borate, pH=8.5. Peptides traveling passed a fluorescence detector were excited by a laser emitting at 488 nm. The peaks were analyzed using software packages supplied by the instrument companies. In the figures, RFU refers to relative fluorescence units.
Binding of C28 to IQN17: Peptide concentrations were determined by weight. […] The binding affinity of C28 to IQN-17 was determined by a capillary electrophoresis (FIG. 3). […]
The area of the Alexa-C28 peaks in increasing concentrations of IQN-17 was analyzed in comparison to the area of Alexa-C28 in the absence of IQN-17 by capillary zone electrophoresis. […]

[1] = target: IQN17 (HIV-1 (gp41 segment); GCN4-pIQI segment designed)

## Alexa-C28: C28 labeled with the fluorescent molecule Alexa-430 at its carboxyl terminal (WMEWDREINNYTSLIHSLIEESQNQQEK-{Alexa‑430})
IQN17
  amount of unbound peptide (broader peak on the right) in titration: decreased from 100% to 0%

## WMEWDREINNYTSLIHSLIEESQNQQEK (modifications not checked) [Alexa-C28]
[1]
  percent of C28 bound: 80%
